Laboratory results from ChEMBL document CHEMBL3885881, “DrugMatrix”.

Organism: Rattus norvegicus
Experiment: DrugMatrix - Regimen: Daily Repeat
Format: toxicity, organism-based, Sprague-Dawley
Parameters: regimen Daily Repeat, gender Male, age 6-8 weeks
Settings: in vivo, po, route oral GAVAGE, vehicle .5 % CMC; for ABSOLUTE BASOPHIL / ABSOLUTE EOSINOPHIL / ABSOLUTE LYMPHOCYTE / ABSOLUTE MONOCYTE / ABSOLUTE SEGMENTED NEUTROPHIL / BASOPHIL / EOSINOPHIL / ERYTHROCYTE COUNT / HEMATOCRIT / HEMOGLOBIN / LEUKOCYTE COUNT / LYMPHOCYTE / MEAN CORPUSCULAR HEMOGLOBIN / MEAN CORPUSCULAR HEMOGLOBIN CONCENTRATION / MEAN CORPUSCULAR VOLUME / MONOCYTE / NEUTROPHIL / NUCLEATED RED BLOOD CELLS / PLATELET COUNT: tissue Blood; for ALANINE AMINOTRANSFERASE / ALBUMIN / ALKALINE PHOSPHATASE / ASPARTATE AMINOTRANSFERASE / BLOOD UREA NITROGEN / CARBON DIOXIDE / CHLORIDE / CHOLESTEROL / CREATINE PHOSPHOKINASE / CREATININE / GLUCOSE / LACTATE DEHYDROGENASE / LIPASE / PHOSPHORUS / POTASSIUM / SODIUM / TOTAL BILIRUBIN / TOTAL PROTEIN / URIC ACID: tissue Plasma
[1] = 0 mg/kg, 72 h, dose level Control, time 3 day
[2] = 0 mg/kg, 120 h, dose level Control, time 5 day
[3] = 1 mg/kg, 72 h, dose level Low, time 3 day

Structure (SMILES): CCOc1nc2cccc(C(=O)O)c2n1Cc1ccc(-c2ccccc2-c2nnn[nH]2)cc1
- ABSOLUTE BASOPHIL [1]: 0 CELLS/uL
- ABSOLUTE EOSINOPHIL [1]: 35.67 CELLS/uL
- ABSOLUTE LYMPHOCYTE [1]: 9125.17 CELLS/uL
- ABSOLUTE MONOCYTE [1]: 50.17 CELLS/uL
- ABSOLUTE SEGMENTED NEUTROPHIL [1]: 722.33 CELLS/uL
- BASOPHIL [1]: 0%
- EOSINOPHIL [1]: 0.33%
- ERYTHROCYTE COUNT [1]: 5.35 x10E6/uL
- HEMATOCRIT [1]: 33.58%
- HEMOGLOBIN [1]: 13.35 G/DL
- LEUKOCYTE COUNT [1]: 9.93 x10E3/uL
- LYMPHOCYTE [1]: 91.67%
- MEAN CORPUSCULAR HEMOGLOBIN [1]: 25 pg
- MEAN CORPUSCULAR HEMOGLOBIN CONCENTRATION [1]: 39.8 G/DL
- MEAN CORPUSCULAR VOLUME [1]: 62.77 fL
- MONOCYTE [1]: 0.67%
- NEUTROPHIL [1]: 7.33%
- NUCLEATED RED BLOOD CELLS [1]: 0 /100WBC
- PLATELET COUNT [1]: 866.17 x10E3/uL
- ALANINE AMINOTRANSFERASE [1]: 57.17 u/L
- ALBUMIN [1]: 4.22 G/DL
- ALKALINE PHOSPHATASE [1]: 391 u/L
- ASPARTATE AMINOTRANSFERASE [1]: 95.17 u/L
- BLOOD UREA NITROGEN [1]: 13.67 mg/dL
- CARBON DIOXIDE [1]: 30 mmol/L
- CHLORIDE [1]: 102.5 MEQ/L
- CHOLESTEROL [1]: 72 mg/dL
- CREATINE PHOSPHOKINASE [1]: 485.67 u/L
- CREATININE [1]: 0.27 mg/dL
- GLUCOSE [1]: 152 mg/dL
- LACTATE DEHYDROGENASE [1]: 372.67 u/L
- LIPASE [1]: 9.83 u/L
- PHOSPHORUS [1]: 12.47 mg/dL
- POTASSIUM [1]: 6.81 MEQ/L
- SODIUM [1]: 144.1 MEQ/L
- TOTAL BILIRUBIN [1]: 0.23 mg/dL
- TOTAL PROTEIN [1]: 5.93 G/DL
- URIC ACID [1]: 1.9 mg/dL
- ABSOLUTE BASOPHIL [2]: 0 CELLS/uL
- ABSOLUTE EOSINOPHIL [2]: 67.33 CELLS/uL
- ABSOLUTE LYMPHOCYTE [2]: 11419.17 CELLS/uL
- ABSOLUTE MONOCYTE [2]: 203.17 CELLS/uL
- ABSOLUTE SEGMENTED NEUTROPHIL [2]: 1327 CELLS/uL
- BASOPHIL [2]: 0%
- EOSINOPHIL [2]: 0.5%
- ERYTHROCYTE COUNT [2]: 5.65 x10E6/uL
- HEMATOCRIT [2]: 35.3%
- HEMOGLOBIN [2]: 13.98 G/DL
- LEUKOCYTE COUNT [2]: 13.02 x10E3/uL
- LYMPHOCYTE [2]: 88%
- MEAN CORPUSCULAR HEMOGLOBIN [2]: 24.78 pg
- MEAN CORPUSCULAR HEMOGLOBIN CONCENTRATION [2]: 39.63 G/DL
- MEAN CORPUSCULAR VOLUME [2]: 62.58 fL
- MONOCYTE [2]: 1.33%
- NEUTROPHIL [2]: 10.17%
- NUCLEATED RED BLOOD CELLS [2]: 0 /100WBC
- PLATELET COUNT [2]: 1213.83 x10E3/uL
- ALANINE AMINOTRANSFERASE [2]: 49.67 u/L
- ALBUMIN [2]: 4.28 G/DL
- ALKALINE PHOSPHATASE [2]: 362.33 u/L
- ASPARTATE AMINOTRANSFERASE [2]: 99 u/L
- BLOOD UREA NITROGEN [2]: 20.67 mg/dL
- CARBON DIOXIDE [2]: 26.33 mmol/L
- CHLORIDE [2]: 102 MEQ/L
- CHOLESTEROL [2]: 63.83 mg/dL
- CREATINE PHOSPHOKINASE [2]: 481.83 u/L
- CREATININE [2]: 0.21 mg/dL
- GLUCOSE [2]: 158 mg/dL
- LACTATE DEHYDROGENASE [2]: 656.33 u/L
- LIPASE [2]: 10.67 u/L
- PHOSPHORUS [2]: 12.27 mg/dL
- POTASSIUM [2]: 6.17 MEQ/L
- SODIUM [2]: 143.35 MEQ/L
- TOTAL BILIRUBIN [2]: 0.17 mg/dL
- TOTAL PROTEIN [2]: 6.13 G/DL
- URIC ACID [2]: 1.48 mg/dL
- ABSOLUTE BASOPHIL [3]: 0 CELLS/uL
- ABSOLUTE EOSINOPHIL [3]: 0 CELLS/uL
- ABSOLUTE LYMPHOCYTE [3]: 10188.33 CELLS/uL
- ABSOLUTE MONOCYTE [3]: 75.33 CELLS/uL
- ABSOLUTE SEGMENTED NEUTROPHIL [3]: 1069.67 CELLS/uL
- BASOPHIL [3]: 0%
- EOSINOPHIL [3]: 0%
- ERYTHROCYTE COUNT [3]: 5.49 x10E6/uL
- HEMATOCRIT [3]: 34.4%
- HEMOGLOBIN [3]: 13.73 G/DL
- LEUKOCYTE COUNT [3]: 11.33 x10E3/uL
- LYMPHOCYTE [3]: 89.67%
- MEAN CORPUSCULAR HEMOGLOBIN [3]: 25.03 pg
- MEAN CORPUSCULAR HEMOGLOBIN CONCENTRATION [3]: 39.93 G/DL
- MEAN CORPUSCULAR VOLUME [3]: 62.7 fL
- MONOCYTE [3]: 0.67%
- NEUTROPHIL [3]: 9.67%
- NUCLEATED RED BLOOD CELLS [3]: 0 /100WBC
- PLATELET COUNT [3]: 1183.67 x10E3/uL
- ALANINE AMINOTRANSFERASE [3]: 53.67 u/L
- ALBUMIN [3]: 4.23 G/DL
- ALKALINE PHOSPHATASE [3]: 410.67 u/L
- ASPARTATE AMINOTRANSFERASE [3]: 90 u/L
- BLOOD UREA NITROGEN [3]: 16.67 mg/dL
- CARBON DIOXIDE [3]: 29 mmol/L
- CHLORIDE [3]: 102.67 MEQ/L
- CHOLESTEROL [3]: 81 mg/dL
- CREATINE PHOSPHOKINASE [3]: 371 u/L
- CREATININE [3]: 0.23 mg/dL
- GLUCOSE [3]: 155.67 mg/dL
- LACTATE DEHYDROGENASE [3]: 328 u/L
- LIPASE [3]: 8 u/L
- PHOSPHORUS [3]: 12.13 mg/dL
- POTASSIUM [3]: 6.17 MEQ/L
- SODIUM [3]: 143.6 MEQ/L
- TOTAL BILIRUBIN [3]: 0.2 mg/dL
- TOTAL PROTEIN [3]: 5.9 G/DL
- URIC ACID [3]: 1.6 mg/dL
